Measured values as given in patent US20250197387A1, “BCL-XL DEGRADERS AND USES THEREOF” (Kymera Therapeutics, Inc., priority 2021, published 2025).
Where two headings read alike, the source gives them in different places.

Assays:
Assay type in all cases: cell-based
BCL-XL [1] = biological target: T1, BCL-XL (Homo sapiens, UniProt Q07817); assay: BCL-XL degradation assay, western blot in MOLT-4 cells, 16 h; conditions: for DC50: read-out: Bcl-xL WB in MOLT-4 degradation 16 h: Mean external-Abs DC50
T1 construct: endogenous in cells; host or cells: MOLT-4
Method in brief: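 MOLT-4 cells treated with compounds at 0.02-10 μM final for 16 hr at 37° C; lysates analysed by western blot with anti-BCL-xL, beta-actin and GAPDH loading controls, infrared imaging and densitometry; DC50 and Dmax % reported as letter codes.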

MOLT-4 cells = assay: CTG (CellTiter-Glo) cell viability assay, MOLT-4; conditions: Homo sapiens, 3 day incubation, read-out: CTG Cell Viability Assay - MOLT-4 3 day: Average external-IC50
Method: Compound-mediated viability effect on MOLT-4 and Caki-2 was quantitatively determined using the CellTiter-Glo® Luminescent Cell Viability Assay kit from Promega (Catalog number G7570) following manufacturer's recommended procedures. Briefly, MOLT-4 and Caki-2 cells were seeded into 384 well plates (Grenier Bio-One, Catalog number 781080) with a density of 10,000 cells per well. Compounds were then added to the assay plate with final top concentration of 10 μM and 1:3 dilution series with total of 9 doses. The final DMSO concentration is normalized to 0.2%. The assay plates were incubated at 37° C., for 3 days under 5% CO2. Then the assay plate was equilibrated at room temperature for 10 minutes. To determine cell viability, 30 uL CellTiter Glo reagent was added to each well and the assay plate was centrifuged at 1000 rpm for 30 second, incubated at room temperature for 10 min, and analyzed by detecting the luminescence using a multimode plate reader (EnVision 2105, PerkinElmer). The data was then analyzed by software Prism 7.0 from GraphPad and the dose response curves are fit using a three-parameter logistic equation to calculate IC50.
The letter codes for MOLT-4 IC50 include: A (<0.1 μM); B (0.1-1.0 μM); C (>1.0-3.0 μM); and D (>3.0 μM). The letter codes for Caki-2 IC50 include: A (<0.1 μM); B (0.1-1.0 μM); C (>1.0-10.0 μM); and D (>10.0 μM).

BCL-XL [2] = biological target: T1, BCL-XL; assay: Bcl-xL ELISA degradation in MOLT-4 cells, 6 h; conditions: for DC50: read-out: Bcl-xL ELISA in MOLT-4 degradation 6 h: Mean external-Abs DC50
Method: The letter codes for BCL-XL DC50 include: A (<0.01 μM); B (0.01-0.1 μM); C (>[…]); D (>0.5-1.0 μM); and E (>1.0 μM). The letter codes for Dmax % include A (>75%); B (50 to 75%); C (<50%).

[3] = western blot, MOLT-4 cells, 16 h, read-out: Bcl-xL WB in MOLT-4 degradation 16 h: Average Dmax %
[4] = western blot, MOLT-4 cells, 16 h
[5] = MOLT-4, read-out: Bcl-xL WB in MOLT-4 degradation 16 h: Average Dmax %

T1 sequence (Q07817 whole entry): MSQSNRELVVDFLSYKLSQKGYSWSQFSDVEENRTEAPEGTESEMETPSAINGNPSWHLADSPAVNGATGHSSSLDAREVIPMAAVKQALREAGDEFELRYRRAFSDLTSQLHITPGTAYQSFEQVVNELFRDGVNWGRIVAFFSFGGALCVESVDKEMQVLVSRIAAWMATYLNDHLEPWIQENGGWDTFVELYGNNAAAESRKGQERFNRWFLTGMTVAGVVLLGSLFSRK

| Structure (SMILES) | Dmax (BCL-XL [1]; [3]) [%] | DC50 (BCL-XL [1]; [4]) [nM] | IC50 (MOLT-4 cells; MOLT-4, 72 h) [nM] | Dmax (BCL-XL [2]) [%] | DC50 (BCL-XL [2]) [nM] | Dmax (BCL-XL [1]; [5]) [%] | IC50 (MOLT-4 cells; 72 h) [nM] |
| --- | --- | --- | --- | --- | --- | --- | --- |
| Cc1ncsc1-c1ccc([C@H](C)NC(=O)[C@@H]2C[C@@H](O)CN2C(=O)[C@@H](NC(=O)CCCCCC(=O)N2CCN(CC[C@H](CSc3ccccc3)Nc3ccc(S(=O)(=O)NC(=O)c4csc(N5CCc6cccc(C(=O)Nc7nc8ccccc8s7)c6C5)n4)cc3S(=O)(=O)C(F)(F)F)CC2)C(C)(C)C)cc1 [I-108] | > 75 | 10 to 100 | 1000 to 3000 | – | – | – | – |
| C#Cc1ccc([C@H](CO)NC(=O)[C@@H]2C[C@@H](O)CN2C(=O)[C@@H](NC(=O)CCCCCC(=O)N2CCN(CC[C@H](CSc3ccccc3)Nc3ccc(S(=O)(=O)NC(=O)c4ccc(N5CCN(CC6=C(c7ccc(Cl)cc7)CCC(C)(C)C6)CC5)cc4)cc3S(=O)(=O)C(F)(F)F)CC2)C(C)(C)C)cc1 [I-116] | > 75 | 10 to 100 | < 100 | – | – | – | – |
| Cc1ncsc1-c1ccc(CNC(=O)[C@@H]2CC(O)CN2C(=O)[C@@H](NC(=O)C2(F)CC2)C(C)(C)C)c(OCCCCCCCCS(=O)(=O)NC(=O)c2nc(N3CCc4cccc(C(=O)Nc5nc6ccccc6s5)c4C3)ccc2-c2cnn(CC34CC5CC(CC(C5)C3)C4)c2C)c1 (stereo partly drawn) [I-122] | > 75 | < 10 | < 100 | – | – | – | – |
| Cc1ncsc1-c1ccc(CNC(=O)[C@@H]2C[C@@H](O)CN2C(=O)[C@@H](NC(=O)C2(C#N)CC2)C(C)(C)C)c(OCC(=O)N2CCN(CC[C@H](CSc3ccccc3)Nc3ccc(S(=O)(=O)NC(=O)c4ccc(N5CCN(CC6=C(c7ccc(Cl)cc7)CCC(C)(C)C6)CC5)cc4)cc3S(=O)(=O)C(F)(F)F)CC2)c1 [I-133] | > 75 | 10 to 100 | 1000 to 3000 | – | – | – | – |
| Cc1cc([C@H](C(=O)N2C[C@H](O)C[C@H]2C(=O)NCc2ccc(-c3scnc3C)cc2OCC(=O)N2CCN(CC[C@H](CSc3ccccc3)Nc3ccc(S(=O)(=O)NC(=O)c4ccc(N5CCN(CC6=C(c7ccc(Cl)cc7)CCC(C)(C)C6)CC5)cc4)cc3S(=O)(=O)C(F)(F)F)CC2)C(C)C)on1 [I-134] | < 50 | > 1000 | > 3000 | – | – | – | – |
| Cc1cc([C@@H](C(=O)N2C[C@H](O)C[C@H]2C(=O)NCc2ccc(-c3scnc3C)cc2OCC(=O)N2CCN(CC[C@H](CSc3ccccc3)Nc3ccc(S(=O)(=O)NC(=O)c4ccc(N5CCN(CC6=C(c7ccc(Cl)cc7)CCC(C)(C)C6)CC5)cc4)cc3S(=O)(=O)C(F)(F)F)CC2)C(C)C)on1 [I-135] | > 75 | 10 to 100 | 100 to 1000 | – | – | – | – |
| Cc1ncsc1-c1ccc([C@H](CC(=O)N(C)CC(=O)N2CCN(CC[C@H](CSc3ccccc3)Nc3ccc(S(=O)(=O)NC(=O)c4ccc(N5CCN(CC6=C(c7ccc(Cl)cc7)CCC(C)(C)C6)CC5)cc4)cc3S(=O)(=O)C(F)(F)F)CC2)NC(=O)[C@@H]2C[C@@H](O)CN2C(=O)[C@@H](NC(=O)C2(F)CC2)C(C)(C)C)cc1 [I-136] | – | > 1000 | – | – | – | < 50 | > 3000 |
| Cc1ncsc1-c1ccc([C@@H](CC(=O)N(C)CC(=O)N2CCN(CC[C@H](CSc3ccccc3)Nc3ccc(S(=O)(=O)NC(=O)c4ccc(N5CCN(CC6=C(c7ccc(Cl)cc7)CCC(C)(C)C6)CC5)cc4)cc3S(=O)(=O)C(F)(F)F)CC2)NC(=O)[C@@H]2C[C@@H](O)CN2C(=O)[C@@H](NC(=O)C2(F)CC2)C(C)(C)C)cc1 [I-137] | – | 100 to 500 | – | – | – | > 75 | 1000 to 3000 |
| Cc1ncsc1-c1ccc([C@H](CC(=O)N(C)CCCC(=O)N2CCN(CC[C@H](CSc3ccccc3)Nc3ccc(S(=O)(=O)NC(=O)c4ccc(N5CCN(CC6=C(c7ccc(Cl)cc7)CCC(C)(C)C6)CC5)cc4)cc3S(=O)(=O)C(F)(F)F)CC2)NC(=O)[C@@H]2C[C@@H](O)CN2C(=O)[C@@H](NC(=O)C2(F)CC2)C(C)(C)C)cc1 [I-138] | < 50 | > 1000 | > 3000 | – | – | – | – |
| Cc1ncsc1-c1ccc([C@@H](CC(=O)N(C)CCCC(=O)N2CCN(CC[C@H](CSc3ccccc3)Nc3ccc(S(=O)(=O)NC(=O)c4ccc(N5CCN(CC6=C(c7ccc(Cl)cc7)CCC(C)(C)C6)CC5)cc4)cc3S(=O)(=O)C(F)(F)F)CC2)NC(=O)[C@@H]2C[C@@H](O)CN2C(=O)[C@@H](NC(=O)C2(F)CC2)C(C)(C)C)cc1 [I-139] | > 75 | 100 to 500 | 1000 to 3000 | – | – | – | – |
| Cc1ncsc1-c1ccc(CNC(=O)[C@@H]2C[C@H](O)CN2C(=O)[C@@H](NC(=O)C2(F)CC2)C(C)(C)C)c(OCCCCCS(=O)(=O)NC(=O)c2nc(N3CCc4cccc(C(=O)Nc5nc6ccccc6s5)c4C3)ccc2-c2cnn(CC34CC5CC(CC(C5)C3)C4)c2C)c1 [I-290] | – | – | 100 to 1000 | 50 to 75 | 100 to 500 | – | – |
| Cc1ncsc1-c1ccc([C@H](C)NC(=O)[C@@H]2C[C@@H](O)CN2C(=O)[C@@H](NC(=O)C2CCN(c3ccc(S(=O)(=O)NC(=O)c4nc(N5CCc6cccc(C(=O)Nc7nc8ccccc8s7)c6C5)ccc4-c4cccc(OC(C)C)c4C)cc3)CC2)C(C)(C)C)cc1 [I-305] | – | – | 1000 to 3000 | < 50 | > 1000 | – | – |

Continued, in another order:

| Dmax (BCL-XL [1]; [3]) [%] | DC50 (BCL-XL [1]; [4]) [nM] | IC50 (MOLT-4 cells; MOLT-4, 72 h) [nM] | Dmax (BCL-XL [2]) [%] | DC50 (BCL-XL [2]) [nM] | Structure (SMILES) | Dmax (BCL-XL [1]; [5]) [%] | IC50 (MOLT-4 cells; 72 h) [nM] |
| --- | --- | --- | --- | --- | --- | --- | --- |
| 50 to 75 | 100 to 500 | 100 to 1000 | – | – | Cc1ncsc1-c1ccc([C@H](C)NC(=O)[C@@H]2C[C@@H](O)CN2C(=O)[C@@H](NC(=O)CCCC(=O)NCCOc2ccc(C(=O)Nc3nc4ccccc4s3)c3c2CCN(c2ccc(-c4cnn(CC5CCCCC5)c4C)c(C(=O)O)n2)C3)C(C)(C)C)cc1 [I-43] | – | – |
| > 75 | 10 to 100 | 1000 to 3000 | – | – | Cc1ncsc1-c1ccc([C@H](C)NC(=O)[C@@H]2C[C@@H](O)CN2C(=O)[C@@H](NC(=O)CCCCCCCC(=O)NCCOc2ccc(C(=O)Nc3nc4ccccc4s3)c3c2CCN(c2ccc(-c4cnn(CC5CCCCC5)c4C)c(C(=O)O)n2)C3)C(C)(C)C)cc1 [I-45] | – | – |
| 50 to 75 | 100 to 500 | 1000 to 3000 | – | – | Cc1ncsc1-c1ccc(CNC(=O)[C@@H]2C[C@@H](O)CN2C(=O)[C@@H](NC(=O)C2(F)CC2)C(C)(C)C)c(OCCCC(=O)NCCOc2ccc(C(=O)Nc3nc4ccccc4s3)c3c2CCN(c2ccc(-c4cnn(CC5CCCCC5)c4C)c(C(=O)O)n2)C3)c1 [I-46] | – | – |
| < 50 | > 1000 | > 3000 | – | – | Cc1ncsc1-c1ccc(CNC(=O)[C@@H]2C[C@@H](O)CN2C(=O)[C@@H](NC(=O)C2(F)CC2)C(C)(C)C)c(OCCCCCC(=O)NCCOc2ccc(C(=O)Nc3nc4ccccc4s3)c3c2CCN(c2ccc(-c4cnn(CC5CCCCC5)c4C)c(C(=O)O)n2)C3)c1 [I-47] | – | – |
| 50 to 75 | 100 to 500 | 100 to 1000 | – | – | Cc1ncsc1-c1ccc(CNC(=O)[C@@H]2C[C@@H](O)CN2C(=O)[C@@H](NC(=O)C2(F)CC2)C(C)(C)C)c(OCCCCCCCC(=O)NCCOc2ccc(C(=O)Nc3nc4ccccc4s3)c3c2CCN(c2ccc(-c4cnn(CC5CCCCC5)c4C)c(C(=O)O)n2)C3)c1 [I-48] | – | – |
| > 75 | < 10 | 100 to 1000 | – | – | Cc1ncsc1-c1ccc([C@H](C)NC(=O)[C@@H]2C[C@@H](O)CN2C(=O)[C@@H](NC(=O)CCCCCCCS(=O)(=O)NC(=O)c2nc(N3CCc4cccc(C(=O)Nc5nc6ncccc6s5)c4C3)ccc2-c2cnn(CC34CC5CC(CC(C5)C3)C4)c2C)C(C)(C)C)cc1 [I-140] | – | – |
| > 75 | 100 to 500 | > 3000 | – | – | Cc1ncsc1-c1ccc([C@H](C)NC(=O)[C@@H]2C[C@@H](O)CN2C(=O)[C@@H](NC(=O)CCCCCCCCNC(=O)c2nc(N3CCc4cccc(C(=O)Nc5nc6ccccc6s5)c4C3)ccc2-c2cnn(CC3CCOCC3)c2C)C(C)(C)C)cc1 [I-142] | – | – |
| 50 to 75 | 500 to 1000 | 100 to 1000 | – | – | Cc1ncsc1-c1ccc([C@H](C)NC(=O)[C@@H]2C[C@@H](O)CN2C(=O)[C@@H](NC(=O)N2CCC(CN3CCC(CNC(=O)c4nc(N5CCc6cccc(C(=O)Nc7nc8ccccc8s7)c6C5)ccc4-c4cnn(CC5CCCCC5)c4C)CC3)CC2)C(C)(C)C)cc1 [I-144] | – | – |
| > 75 | 100 to 500 | > 3000 | – | – | Cc1ncsc1-c1ccc([C@H](C)NC(=O)[C@@H]2C[C@@H](O)CN2C(=O)[C@H](NC(=O)CCCCCCCS(=O)(=O)NC(=O)c2nc(N3CCc4cccc(C(=O)Nc5nc6ccccc6s5)c4C3)ccc2-c2cnn(C)c2C)C(C)(C)C)cc1 [I-145] | – | – |
| – | – | 1000 to 3000 | < 50 | > 1000 | Cc1ncsc1-c1ccc([C@H](C)NC(=O)[C@@H]2C[C@@H](O)CN2C(=O)[C@@H](c2cc(OC3CCN([C@H]4CC[C@H](NC(=O)c5nc(N6CCc7cccc(C(=O)Nc8nc9ccccc9s8)c7C6)ccc5-c5cnn(CC6CCCCC6)c5C)CC4)CC3)no2)C(C)C)cc1 [I-313] | – | – |
